Experimental data reported in patent US11116218B2, “Isoxazole compound or a salt thereof” (OAT AGRIO CO., LTD., priority 2017, dated 2021).

Key:
two-spotted spider mites [1] = test: Ovicidal test on two-spotted spider mites; assay type: in vivo, two-spotted spider mite; conditions: Tetranychus urticae, 144 h; 10 ppm spray, ovicidal rate 6 days after spraying
Description: A piece of non-woven fabric (4.5×5.5 cm) was suspended inside a plastic cup through an incision made in the lid of the plastic cup. After water was poured into the cup, the cup was covered with the lid. A kidney bean leaf (about 3.5×4.5 cm) was then placed on the sufficiently soaked, non-woven fabric. Twenty female adults of two-spotted spider mite were placed on the top of the leaf, and the fabric and leaf were placed in a thermostatic chamber having a temperature of 25±2° C. and a humidity of 40% and 16L8D. The next day, after the number of the female adults was adjusted once more to 20, 2 mL of a miticidal formulation containing the compound of the invention (10 ppm) prepared in the same manner as in test example 1 was sprayed onto the leaf, and the leaf was air-dried and placed in a thermostatic chamber (25±2° C. and a humidity of 50%). The ovicidal rate of the two-spotted spider mites was calculated 6 days after the spraying of the miticidal formulation.

two-spotted spider mites [2] = test: Miticidal test on two-spotted spider mite (leaf spray); assay type: in vivo; conditions: Tetranychus urticae, in Phaseolus vulgaris, 48 h, read-out: Mortality of mites (%)
From the text: A piece of non-woven fabric (4.5×5.5 cm) was suspended inside a plastic cup through an incision made in the lid of the plastic cup. After water was poured into the cup, the cup was covered with the lid. A kidney bean leaf (about 3.5×4.5 cm) was then placed on the sufficiently soaked, non-woven fabric. Another kidney bean leaf with two-spotted spider mites (about 30 mite samples) was placed on top of the first leaf, and the fabric and leaves were placed in a thermostatic chamber having a temperature of 25±2° C. and a humidity of 40% overnight. Next morning the top leaf was removed as the mite population had already moved to the lower leaf.
Miticidal formulations containing the compound of the invention (100 ppm and 5 ppm) were prepared by adding an aqueous solution (100 ppm) of Sorpol 355 (manufactured by Tobo Kagaku Co., Ltd.) to a methanol solution of the compound of the invention. These miticidal formulations were sprayed onto the leaves, and the leaves were air-dried and placed in a thermostatic chamber (25±2° C. and a humidity of 50%). The mortality rate of the two-spotted spider mites was calculated after 2 days.

Row | SMILES | inhibition at 10 ppm (two-spotted spider mites [1]) [%] | mortality at 5 ppm (two-spotted spider mites [2]) [%] | mortality at 100 ppm (two-spotted spider mites [2]) [%]
1 | CCC[S+]([O-])c1cc(-c2cc(C(F)(F)F)on2)c(F)cc1C (stereo not drawn) [Compound 35, 3-(2-fluoro-4-methyl-5-(propylsulfinyl)phenyl)-5-(trifluoromethyl)isoxazole] | 100 | 100 | 100
2 | Cc1cc(F)c(-c2cc(C(F)F)on2)cc1[S+]([O-])CC(F)(F)F (stereo not drawn) [Compound 14, 5-(difluoromethyl)-3-(2-fluoro-4-methyl-5-((2,2,2-trifluoroethyl)sulfinyl)phenyl)isoxazole] | 50 | 40 | 100
3 | Cc1cc(F)c(-c2cc(C(F)(F)c3ccccc3)on2)cc1SCC(F)(F)F [Compound 19, 5-(difluoro(phenyl)methyl)-3-(2-fluoro-4-methyl-5-((2,2,2-trifluoroethyl)thio)phenyl)isoxazole] | 100 | 100 | 100
4 | Cc1cc(F)c(-c2cc(C(F)(F)F)on2)cc1[S+]([O-])CC(F)(F)F (stereo not drawn) [Compound 2, 3-(2-fluoro-4-methyl-5-((2,2,2-trifluoroethyl)sulfinyl)phenyl)-5-(trifluoromethyl)isoxazole] | 100 | 100 | 100
5 | Cc1cc(Cl)c(-c2cc(C(F)(F)F)on2)cc1SCC(F)(F)F [Compound 22, 3-(2-chloro-4-methyl-5-((2,2,2-trifluoroethyl)thio)phenyl)-5-(trifluoromethyl)isoxazole] | – | 73 | 100
6 | Cc1cc(F)c(-c2noc(C(F)(F)F)c2C)cc1[S+]([O-])CC(F)(F)F (stereo not drawn) [Compound 38, 3-(2-fluoro-4-methyl-5-((2,2,2-trifluoroethyl)sulfinyl)phenyl)-4-methyl-5-(trifluoromethyl)isoxazole] | 100 | 100 | 100
7 | Cc1cc(F)c(-c2cc(C(F)F)on2)cc1SCC(F)(F)F [Compound 13, 5-(difluoromethyl)-3-(2-fluoro-4-methyl-5-((2,2,2-trifluoroethyl)thio)phenyl)isoxazole] | 98 | 48 | 100
8 | Cc1cc(F)c(-c2cc(C(F)(F)C(F)(F)C(F)(F)F)on2)cc1[S+]([O-])CC(F)(F)F (stereo not drawn) [Compound 8, 3-(2-fluoro-4-methyl-5-((2,2,2-trifluoroethyl)sulfinyl)phenyl)-5-(heptafluoropropyl)isoxazole] | 90 | 100 | 100
9 | Cc1cc(C)c([S+]([O-])CC(F)(F)F)cc1-c1cc(C(F)(F)Cl)on1 (stereo not drawn) [Compound 50, 5-(chlorodifluoromethyl)-3-(2,4-dimethyl-5-((2,2,2-trifluoroethyl)sulfinyl)phenyl)isoxazole] | 97 | 96 | 100
10 | Cc1cc(F)c(-c2cc(C(F)(F)C(F)(F)F)on2)cc1[S+]([O-])CC(F)(F)F (stereo not drawn) [Compound 5, 3-(2-fluoro-4-methyl-5-((2,2,2-trifluoroethyl)sulfinyl)phenyl)-5-(perfluoroethyl)isoxazole] | 90 | 95 | 100
11 | Cc1cc(Cl)c(-c2cc(C(F)(F)Cl)on2)cc1SCC(F)(F)F [Compound 43, 3-(2-chloro-4-methyl-5-((2,2,2-trifluoroethyl)thio)phenyl)-5-(chlorodifluoromethyl)isoxazole] | 100 | 100 | 100
12 | Cc1cc(F)c(-c2cc(C(F)(F)c3ccccc3)on2)cc1[S+]([O-])CC(F)(F)F (stereo not drawn) [Compound 20, 5-(difluoro(phenyl)methyl)-3-(2-fluoro-4-methyl-5-((2,2,2-trifluoroethyl)sulfinyl)phenyl)isoxazole] | 95 | 93 | 100
13 | Cc1cc(Cl)c(-c2cc(C(F)(F)F)on2)cc1[S+]([O-])CC(F)(F)F (stereo not drawn) [Compound 23, 3-(2-chloro-4-methyl-5-((2,2,2-trifluoroethyl)sulfinyl)phenyl)-5-(trifluoromethyl)isoxazole] | 100 | 100 | 100
14 | Cc1cc(F)c(-c2cc(C(F)(F)Cl)on2)cc1[S+]([O-])CC(F)(F)F (stereo not drawn) [Compound 17, 5-(chlorodifluoromethyl)-3-(2-fluoro-4-methyl-5-((2,2,2-trifluoroethyl)sulfinyl)phenyl)isoxazole] | 100 | 98 | 100
15 | Cc1cc(C)c([S+]([O-])CC(F)(F)F)cc1-c1cc(C(F)F)on1 (stereo not drawn) [Compound 47, 5-(difluoromethyl)-3-(2,4-dimethyl-5-((2,2,2-trifluoroethyl)sulfinyl)phenyl)isoxazole] | 80 | 51 | 100
16 | Cc1cc(Cl)c(-c2cc(C(F)(F)c3ccccc3)on2)cc1SCC(F)(F)F [Compound 52, 3-(2-chloro-4-methyl-5-((2,2,2-trifluoroethyl)thio)phenyl)-5-(difluoro(phenyl)methyl)isoxazole] | 32 | 61 | 100
17 | Cc1cc(C)c(-c2cc(C(F)F)on2)cc1SCC(F)(F)F [Compound 46, 5-(difluoromethyl)-3-(2,4-dimethyl-5-((2,2,2-trifluoroethyl)thio)phenyl)isoxazole] | 83 | 79 | 100
18 | Cc1cc(Cl)c(-c2cc(C(F)(F)c3ccccc3)on2)cc1[S+]([O-])CC(F)(F)F (stereo not drawn) [Compound 53, 3-(2-chloro-4-methyl-5-((2,2,2-trifluoroethyl)sulfinyl)phenyl)-5-(difluoro(phenyl)methyl)isoxazole] | 90 | 64 | 100
19 | Cc1cc(Cl)c(-c2cc(C(F)(F)Cl)on2)cc1[S+]([O-])CC(F)(F)F (stereo not drawn) [Compound 44, 3-(2-chloro-4-methyl-5-((2,2,2-trifluoroethyl)sulfinyl)phenyl)-5-(chlorodifluoromethyl)isoxazole] | 100 | 100 | 100
20 | Cc1cc(C)c(-c2cc(C(F)(F)F)on2)cc1SCC(F)(F)F [Compound 25, 3-(2,4-dimethyl-5-((2,2,2-trifluoroethyl)thio)phenyl)-5-(trifluoromethyl)isoxazole] | – | 10 | 100
21 | Cc1cc(F)c(-c2cc(C(F)(F)F)on2)cc1SCC(F)(F)F [Compound 1, 3-(2-fluoro-4-methyl-5-((2,2,2-trifluoroethyl)thio)phenyl)-5-(trifluoromethyl)isoxazole] | – | 30 | 100
22 | Cc1cc(C)c([S+]([O-])CC(F)(F)F)cc1-c1cc(C(F)(F)F)on1 (stereo not drawn) [Compound 26, 3-(2,4-dimethyl-5-((2,2,2-trifluoroethyl)sulfinyl)phenyl)-5-(trifluoromethyl)isoxazole] | 90 | 98 | 100
23 | Cc1cc(C)c(-c2cc(C(F)(F)c3ccccc3)on2)cc1SCC(F)(F)F [Compound 40, 5-(difluoro(phenyl)methyl)-3-(2,4-dimethyl-5-((2,2,2-trifluoroethyl)thio)phenyl)isoxazole] | 89 | 33 | 100
24 | Cc1cc(C)c(-c2cc(C(F)(F)Cl)on2)cc1SCC(F)(F)F [Compound 49, 5-(chlorodifluoromethyl)-3-(2,4-dimethyl-5-((2,2,2-trifluoroethyl)thio)phenyl)isoxazole] | 0 | 6 | 100
25 | Cc1ccc(-c2cc(C(F)(F)F)on2)cc1SCC(F)(F)F [Compound A, reference compound] | 0 | 0 | 100
26 | Cc1cc(Cl)c(-c2cc(C(F)F)on2)cc1[S+]([O-])CC(F)(F)F (stereo not drawn) [Compound 56, 3-(2-chloro-4-methyl-5-((2,2,2-trifluoroethyl)sulfinyl)phenyl)-5-(difluoromethyl)isoxazole] | 100 | 100 | 100
27 | Cc1cc(Cl)c(-c2cc(C(F)F)on2)cc1SCC(F)(F)F [Compound 55, 3-(2-chloro-4-methyl-5-((2,2,2-trifluoroethyl)thio)phenyl)-5-(difluoromethyl)isoxazole] | 100 | 100 | 100
